Source: patent US7572786B2, “Substituted 1-piperidin-3-yl-4-piperidin-4-yl-piperazine derivatives and their use as neurokinin antagonists” (Janssen Pharmaceutica, N.V., priority 2002, dated 2009)

What was measured:
Format in all cases: cell-based
[1] = biological target: T1, NK2 (Homo sapiens, UniProt P21452); assay: Signal transduction (ST), intracellular Ca++ (FLIPR), NK2; details: for IC50: read-out: pIC50 NK2 (converted)
T1 sequence (P21452 1-398): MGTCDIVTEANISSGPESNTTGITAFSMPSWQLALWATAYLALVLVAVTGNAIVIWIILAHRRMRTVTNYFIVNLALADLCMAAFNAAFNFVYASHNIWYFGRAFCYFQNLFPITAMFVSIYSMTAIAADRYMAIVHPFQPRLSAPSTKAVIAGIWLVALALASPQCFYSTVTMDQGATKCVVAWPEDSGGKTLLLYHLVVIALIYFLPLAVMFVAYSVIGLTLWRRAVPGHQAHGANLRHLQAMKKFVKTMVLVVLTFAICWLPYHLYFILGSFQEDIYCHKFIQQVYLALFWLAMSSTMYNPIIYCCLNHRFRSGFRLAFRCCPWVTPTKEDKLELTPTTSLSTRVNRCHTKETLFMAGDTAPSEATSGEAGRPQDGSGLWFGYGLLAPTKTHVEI
Protocol: [The source words this procedure for another target and reports this target under the same test.] (§1) This test evaluates in vitro functional NK1 antagonistic activity. For the measurements of intracellular Ca^++ concentrations the cells were grown on 96-well (black wall/transparent bottom) plates from Costar for 2 days until they reached confluence. The cells were loaded with 2 μM Fluo3 in DMEM containing 0.1% BSA and 2.5 mM probenecid for 1 h at 37° C. […] The cells were preincubated with a concentration range of antagonists for 20 min at RT and Ca^++-signals after addition of the agonists were measured in a Fluorescence Image Plate Reader (FLIPR from Molecular Devices, Crawley, England). The peak of the Ca^++-transient was considered as the relevant signal and the mean values of corresponding wells were analysed as described below.
(§2) The sigmoidal dose response curves were analysed by computerised curve-fitting, using the GraphPad Program. […] For antagonist responses the IC50-value was calculated using non-linear regression.

[2] = biological target: NK1 (Homo sapiens, UniProt P25103); assay: Signal transduction (ST), intracellular Ca++ (FLIPR), NK1 antagonism; details: for IC50: read-out: pIC50 NK1 (converted)
Protocol: as §1, §2

[3] = biological target: T2, NK3 (Homo sapiens, UniProt P29371); assay: Signal transduction (ST), intracellular Ca++ (FLIPR), NK3; details: for IC50: read-out: pIC50 NK3 (converted)
T2 sequence (P29371 1-465): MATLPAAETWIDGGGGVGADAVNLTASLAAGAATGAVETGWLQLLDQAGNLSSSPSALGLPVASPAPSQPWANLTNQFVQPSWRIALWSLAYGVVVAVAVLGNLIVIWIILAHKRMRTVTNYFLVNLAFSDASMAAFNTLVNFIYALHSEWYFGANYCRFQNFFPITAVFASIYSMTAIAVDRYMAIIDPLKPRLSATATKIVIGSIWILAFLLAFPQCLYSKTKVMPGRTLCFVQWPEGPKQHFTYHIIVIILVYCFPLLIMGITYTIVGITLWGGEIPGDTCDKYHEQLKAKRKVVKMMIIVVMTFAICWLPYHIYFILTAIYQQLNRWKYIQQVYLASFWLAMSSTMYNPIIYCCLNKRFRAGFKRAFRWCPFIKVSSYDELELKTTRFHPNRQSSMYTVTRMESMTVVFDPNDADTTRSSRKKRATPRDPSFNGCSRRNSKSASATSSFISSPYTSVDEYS
Protocol: [The source words this procedure for another target and reports this target under the same test.] as §1, §2

Chain of NK1 (P25103 whole entry): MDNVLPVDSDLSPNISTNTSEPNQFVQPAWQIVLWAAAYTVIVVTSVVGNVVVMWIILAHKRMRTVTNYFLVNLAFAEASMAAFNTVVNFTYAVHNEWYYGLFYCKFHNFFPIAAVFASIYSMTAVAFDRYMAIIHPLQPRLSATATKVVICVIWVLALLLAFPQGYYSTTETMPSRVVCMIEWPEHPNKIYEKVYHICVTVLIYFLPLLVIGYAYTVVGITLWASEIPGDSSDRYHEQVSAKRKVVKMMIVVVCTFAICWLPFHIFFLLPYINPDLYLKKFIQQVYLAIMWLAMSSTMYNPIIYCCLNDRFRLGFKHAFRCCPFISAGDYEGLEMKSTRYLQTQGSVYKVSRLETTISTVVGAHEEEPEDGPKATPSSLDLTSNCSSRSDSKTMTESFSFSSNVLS

| Compound | IC50 [1] [nM] | IC50 [2] [nM] | IC50 [3] [nM] | pIC50 NK2 [1] | pIC50 NK1 [2] | pIC50 NK3 [3] |
| --- | --- | --- | --- | --- | --- | --- |
| O=C(c1cc(C(F)(F)F)cc(C(F)(F)F)c1)N1CC[C@H](N2CCN(C3CCCN(C(CO)c4ccoc4)C3)CC2)C[C@H]1Cc1ccccc1 (stereo partly shown) [Compound 79] | 1580 | 12.6 | 1000 |  |  |  |
| O=C(c1cc(C(F)(F)F)cc(C(F)(F)F)c1)N1CC[C@H](N2CCN(C3CCCN(S(=O)(=O)c4ccc5nonc5c4)C3)CC2)C[C@H]1Cc1ccccc1 (stereo partly shown) [Compound 45] | 1580 | 20 | 398 |  |  |  |
| COc1ccc(S(=O)(=O)N2CCCC(N3CCN([C@H]4CCN(C(=O)c5cc(C(F)(F)F)cc(C(F)(F)F)c5)[C@H](Cc5ccccc5)C4)CC3)C2)cc1 (stereo partly shown) [Compound 72] | 2000 | 20 | 1260 |  |  |  |
| CC(C)(C)OC(=O)N1CCC[C@@H]1C(=O)N1CCCC(N2CCN([C@H]3CCN(C(=O)c4cc(C(F)(F)F)cc(C(F)(F)F)c4)[C@H](Cc4ccccc4)C3)CC2)C1 (stereo partly shown) [Compound 53] |  |  |  | 5.7 | 8.3 | 7.3 |
| CC(C)(C)OC(=O)N1CCCC1C(=O)N1CCCC(N2CCN(C3CCN(C(=O)c4cc(C(F)(F)F)cc(C(F)(F)F)c4)C(Cc4ccccc4)C3)CC2)C1 (stereo not shown) [Compound 54] | 2000 | 5.01 | 251 |  |  |  |
| O=C(c1cc(C(F)(F)F)cc(C(F)(F)F)c1)N1CC[C@H](N2CCN(C3CCCN(S(=O)(=O)c4ccc(CCO)s4)C3)CC2)C[C@H]1Cc1ccccc1 (stereo partly shown) [Compound 86] |  |  |  | 6.4 | 8.2 | 6.3 |
| O=C(c1ccc(CCO)s1)N1CCCC(N2CCN(C3CCN(C(=O)c4cc(C(F)(F)F)cc(C(F)(F)F)c4)C(Cc4ccccc4)C3)CC2)C1 (stereo not shown) [Compound 98] | 5010 | 12.6 | 2000 |  |  |  |
| COc1ccc(NC(=NC#N)N2CCCC(N3CCN([C@H]4CCN(C(=O)c5cc(C(F)(F)F)cc(C(F)(F)F)c5)[C@H](Cc5ccccc5)C4)CC3)C2)cc1 (stereo partly shown) [Compound 94] | 3980 | 20 | 1000 |  |  |  |
| O=C(c1sccc1CO)N1CCCC(N2CCN([C@H]3CCN(C(=O)c4cc(C(F)(F)F)cc(C(F)(F)F)c4)[C@H](Cc4ccccc4)C3)CC2)C1 (stereo partly shown) [Compound 97] | 3980 | 10 | 2510 |  |  |  |
| O=C(c1ccc(O)cc1)N1CCCC(N2CCN(C3CCN(C(=O)c4cc(C(F)(F)F)cc(C(F)(F)F)c4)C(Cc4ccccc4)C3)CC2)C1 (stereo not shown) [Compound 67] | 5010 | 6.31 | 1580 |  |  |  |
| Cc1ccccc1C(=O)N1CCCC(N2CCN([C@H]3CCN(C(=O)c4cc(C(F)(F)F)cc(C(F)(F)F)c4)[C@H](Cc4ccccc4)C3)CC2)C1 (stereo partly shown) [Compound 11] | 3160 | 20 | 1000 |  |  |  |
| O=C(c1c(Cl)cccc1Cl)N1CCCC(N2CCN([C@H]3CCN(C(=O)c4cc(C(F)(F)F)cc(C(F)(F)F)c4)[C@H](Cc4ccccc4)C3)CC2)C1 (stereo partly shown) [Compound 64] | 6310 | 12.6 | 794 |  |  |  |
| COc1cccc(S(=O)(=O)N2CCCC(N3CCN([C@H]4CCN(C(=O)c5cc(C(F)(F)F)cc(C(F)(F)F)c5)[C@H](Cc5ccccc5)C4)CC3)C2)c1 (stereo partly shown) [Compound 69] |  |  |  | 5.6 | 7.8 | 6.2 |
| O=C(c1cc(C(F)(F)F)cc(C(F)(F)F)c1)N1CC[C@H](N2CCN(C3CCCN(C(=O)C4(O)CC4)C3)CC2)C[C@H]1Cc1ccccc1 (stereo partly shown) [Compound 61] | 3160 | 7.94 | 6310 |  |  |  |
| O=C(c1cc(C(F)(F)F)cc(C(F)(F)F)c1)N1CC[C@H](N2CCN(C3CCCN(S(=O)(=O)c4csc(COCc5ccccc5)c4)C3)CC2)C[C@H]1Cc1ccccc1 (stereo partly shown) [Compound 104] | 1260 | 126 | 316 |  |  |  |
| O=C(c1cc(C(F)(F)F)cc(C(F)(F)F)c1)N1CC[C@H](N2CCN(C3CCCN(S(=O)(=O)c4occc4COCc4ccccc4)C3)CC2)C[C@H]1Cc1ccccc1 (stereo partly shown) [Compound 90] |  |  |  | 5.7 | 6.8 |  |
| O=C(c1cc(C(F)(F)F)cc(C(F)(F)F)c1)N1CC[C@H](N2CCN(C3CCCN(S(=O)(=O)c4ccc(COCc5ccccc5)cc4)C3)CC2)C[C@H]1Cc1ccccc1 (stereo partly shown) [Compound 58] | 2000 | 251 |  |  |  |  |
